Source: patent US20210085711A1 (Japan Tobacco Inc., priority 2017, published 2021)
Where two headings read alike, the source gives them in different places.

Columns and labels:
[1] = test system: patients with hypermenorrhea and/or patients with hypermenorrhea-associated gynecologic diseases (iron-deficiency anemia patients)
Procedure: (§1) This test was a three-stage safety and efficacy clinical trial at multi-facilities. The first stage was a pre-observation period (Day −40 to Day −1), the second stage was an administration period (Day 1 to Day 48) (efficacy and safety evaluation period), and the third stage was a post-observation period (Day 49 to Day 63) (efficacy and safety evaluation period). The safety evaluation and efficacy evaluation were performed by multi-facility collaboration, placebo control, random allocation, double-blind trial, and parallel group comparison test.
(§2) The administration period of the trial drug is seven weeks which starts from the next day of the Week 0 visit to the day before the Week 7 visit, provided that the trial drug is not taken on the scheduled Week 3 visit.
(§3) The blood hemoglobin value (Hb), the serum iron level, the serum ferritin value, the total iron-binding capacity (TIBC) and the transferrin saturation rate (TSAT), and the mean corpuscular volume (MCV) were each examined at the observation start date, Week 0, Week 3, Week 7, the end of administration and the consultation at nine weeks after Week 0; the hepcidin concentration (Hepcidin 25) and the serum soluble transferrin receptor concentration (sTfR) were each examined on Week 0, Week 3 and Week 7 and at the end of administration; and the C-terminal FGF23 value (cFGF23) and the intact FGF23 value (iFGF23) were each examined on Week 0 and Week 7 and at the end of administration.

[2] = test system: patients with hypermenorrhea and/or patients with hypermenorrhea-associated gynecologic diseases (iron-deficiency anemia patients); assay: Phase II clinical trial of JTT-751: serum iron level; format: in vivo, human
Procedure: as §1
(1) Japanese patients who are 20 or more and less than 65 years old at the time of agreement and can visit an outpatient clinic (2) Patients who have an Hb value (measured using HemoCue® Hb 201 DM analyzer in the institute of clinical practice) of 7.0 g/dL or more and less than 11.0 g/dL on both the observation start date and Week 0, and the difference between the two days is 1.0 g/dL or less (3) Patients with a TIBC of 360 μg/dL or more or a serum ferritin value of less than 12 ng/mL on the observation start date
as §2
(2) Subsidiary evaluation items 1) Erythrocyte-related examination values and amount of change from Week 0 at each observation date 2) Iron-related test values and amount of change from Week 0 at each observation date 3) Achievement rate of target Hb value (female; 12.0 g/dL or more, male; 13.0 g/dL or more) at each observation date 4) Achievement rate of 1.0 g/dL or more and achievement rate of 2.0 g/dL or more in Hb value improvement from Week 0 at each observation date 5) Average daily change of Hb value from Week 0 to each observation date
as §3

[3] = 250 mg/day, 9 weeks after Week 0
[4] = 250 mg/day, End of administration
[5] = 500 mg/day, 9 weeks after Week 0
[6] = 500 mg/day, End of administration
[7] = 1000 mg/day, 9 weeks after Week 0
[8] = 1000 mg/day, End of administration
[9] = 1500 mg/day, 9 weeks after Week 0
[10] = 1500 mg/day, End of administration
[11] = 250 mg/day, Week 3 (Week 0 not given)
[12] = 500 mg/day, Week 3 (Week 0 not given)
[13] = 1000 mg/day, Week 3 (Week 0 not given)
[14] = 1500 mg/day, Week 3 (Week 0 not given)

Ferric citrate [JTT-751]
TSAT, profile from the baseline (value at Week 0), Mean [1, 3]: 4.29% | TSAT, profile from the baseline (value at Week 0), Median [1, 3]: 3.85% | TSAT, profile from the baseline (value at Week 0), Mean [1, 4]: 9.12% | TSAT, profile from the baseline (value at Week 0), Median [1, 4]: 7.60% | TSAT, profile from the baseline (value at Week 0), Mean ([1]; 250 mg/day, Week 3): 5.26% | TSAT, profile from the baseline (value at Week 0), Median ([1]; 250 mg/day, Week 3): 4.85% | TSAT, profile from the baseline (value at Week 0), Mean ([1]; 250 mg/day, Week 7): 9.12% | TSAT, profile from the baseline (value at Week 0), Median ([1]; 250 mg/day, Week 7): 7.60% | TSAT, profile from the baseline (value at Week 0), Mean [1, 5]: 7.27% | TSAT, profile from the baseline (value at Week 0), Median [1, 5]: 5.90% | TSAT, profile from the baseline (value at Week 0), Mean [1, 6]: 12.27% | TSAT, profile from the baseline (value at Week 0), Median [1, 6]: 12.35% | TSAT, profile from the baseline (value at Week 0), Mean ([1]; 500 mg/day, Week 3): 8.57% | TSAT, profile from the baseline (value at Week 0), Median ([1]; 500 mg/day, Week 3): 3.60% | TSAT, profile from the baseline (value at Week 0), Mean ([1]; 500 mg/day, Week 7): 12.27% | TSAT, profile from the baseline (value at Week 0), Median ([1]; 500 mg/day, Week 7): 12.35% | TSAT, profile from the baseline (value at Week 0), Mean [1, 7]: 12.42% | TSAT, profile from the baseline (value at Week 0), Median [1, 7]: 12.60% | TSAT, profile from the baseline (value at Week 0), Mean [1, 8]: 15.46% | TSAT, profile from the baseline (value at Week 0), Median [1, 8]: 16.20% | TSAT, profile from the baseline (value at Week 0), Mean ([1]; 1000 mg/day, Week 3): 15.56% | TSAT, profile from the baseline (value at Week 0), Median ([1]; 1000 mg/day, Week 3): 9.90% | TSAT, profile from the baseline (value at Week 0), Mean ([1]; 1000 mg/day, Week 7): 15.46% | TSAT, profile from the baseline (value at Week 0), Median ([1]; 1000 mg/day, Week 7): 16.20% | TSAT, profile from the baseline (value at Week 0), Mean [1, 9]: 11.41% | TSAT, profile from the baseline (value at Week 0), Median [1, 9]: 9.95% | TSAT, profile from the baseline (value at Week 0), Mean [1, 10]: 16.70% | TSAT, profile from the baseline (value at Week 0), Median [1, 10]: 16.00% | TSAT, profile from the baseline (value at Week 0), Mean ([1]; 1500 mg/day, Week 3): 15.59% | TSAT, profile from the baseline (value at Week 0), Median ([1]; 1500 mg/day, Week 3): 7.90% | TSAT, profile from the baseline (value at Week 0), Mean ([1]; 1500 mg/day, Week 7): 16.70% | TSAT, profile from the baseline (value at Week 0), Median ([1]; 1500 mg/day, Week 7): 16.00% | Serum iron, Mean [2, 3]: 14.3 µg/dL | Serum iron, Median [2, 3]: 13.0 µg/dL | Serum iron, Mean [2, 4]: 30.4 µg/dL | Serum iron, Median [2, 4]: 25.0 µg/dL | Serum iron, Mean [2, 11]: 19.9 µg/dL | Serum iron, Median [2, 11]: 18.5 µg/dL | Serum iron, Mean ([2]; 250 mg/day, Week 7): 30.4 µg/dL | Serum iron, Median ([2]; 250 mg/day, Week 7): 25.0 µg/dL | Serum iron, Mean [2, 5]: 24.6 µg/dL | Serum iron, Median [2, 5]: 18.0 µg/dL | Serum iron, Mean [2, 6]: 40.1 µg/dL | Serum iron, Median [2, 6]: 42.5 µg/dL | Serum iron, Mean [2, 12]: 29.6 µg/dL | Serum iron, Median [2, 12]: 13.5 µg/dL | Serum iron, Mean ([2]; 500 mg/day, Week 7): 40.1 µg/dL | Serum iron, Median ([2]; 500 mg/day, Week 7): 42.5 µg/dL | serum iron level on Week 3 ([2]; 1000 mg administration group and 1500 mg administration group, Week 3): improved to a normal value | Serum iron, Mean [2, 7]: 40.3 µg/dL | Serum iron, Median [2, 7]: 38.0 µg/dL | Serum iron, Mean [2, 8]: 48.3 µg/dL | Serum iron, Median [2, 8]: 52.0 µg/dL | Serum iron, Mean [2, 13]: 55.5 µg/dL | Serum iron, Median [2, 13]: 36.0 µg/dL | Serum iron, Mean ([2]; 1000 mg/day, Week 7): 48.3 µg/dL | Serum iron, Median ([2]; 1000 mg/day, Week 7): 52.0 µg/dL | Serum iron, Mean [2, 9]: 38.1 µg/dL | Serum iron, Median [2, 9]: 34.0 µg/dL | Serum iron, Mean [2, 10]: 54.4 µg/dL | Serum iron, Median [2, 10]: 46.0 µg/dL | Serum iron, Mean [2, 14]: 53.1 µg/dL | Serum iron, Median [2, 14]: 27.0 µg/dL | Serum iron, Mean ([2]; 1500 mg/day, Week 7): 54.4 µg/dL | Serum iron, Median ([2]; 1500 mg/day, Week 7): 46.0 µg/dL | serum iron level, increased to a normal value ([2]; continuous administration, Week 0, Week 3 and Week 7): about 50 μg/dL
